Test results taken from patent publication US20080319000A1, “Use of 3,1IB-Cis-Dihydrotetrabenazine for the Treatment of Symptoms of Huntingtons Disease” (CAMBRIDGE LABORATORIES (IRELAND) LIMITED, priority 2005, published 2008).

What was measured:
Male Sprague-Dawley rats = experiment: Spontaneous locomotor activity in rats (sedative properties); format: in vivo; conditions: for Inactivity Duration / Large movements Duration / Large movements Occurrence: rats, 20 min period, mean ± SEM n=12
Description: A study was carried out in rats to determine whether the dihydrotetrabenazine isomers of the invention have sedative properties. […] Male Sprague-Dawley rats, (Charles River Laboratories, Saint-Germain/L'Arbresle, France), weighing 200-250 g at the beginning of the study, were used for the studies. […] The rats were allowed to acclimatize to their conditions for at least five days before commencement of the study. The rats received food ([…], France, ref. 811002) and water (tap water in water bottle) ad libitum. Solutions of each test compound in corn oil were freshly prepared on the day of the experiment. Haloperidol was prepared in hydroxyethylcellulose, 0.5% in deionized water. Either the vehicle or the test compounds were administered as a single dose (0.3, 1, 3 and 10 mg/kg, 2 mL/kg i.p.). The reference compound haloperidol (1 mg/kg) was administered i.p. […] The animals were placed in plexiglass cages under a video camera in a room with low light intensity (maximum 50 lux). At forty five minutes and 3 hours after administration, locomotor activity was determined during 20 minute periods using a video image analyzer (Videotrack, View Point, France). […] The number and duration of ambulatory movements and duration of inactivity was measured. At the end of the locomotor activity measurement (45 minutes and 3 hours), palpebral closure and arousal were be scored as follows in the plexiglass cage: […] Image tracking was performed using a video camera placed above the plexiglass cage, recording overall locomotor activity. […] The results were expressed as the means ±SEMs of the 12 individual values. Statistical analyses were carried out using ANOVA (one way) and Dunnett's t-test and with the non parametric test of Kruskal-Wallis followed by a Mann & Whitney U-test for the sedation cotation. A p value of p<0.05 was taken as indicating significance. Group size n=12 Group 1: Reference, haloperidol (1 mg/kg i.p.) Group 2: Vehicle control group (2 ml/kg i.p.) Group 3: tetrabenazine (0.3 mg/kg i.p) Group 4: tetrabenazine (1 mg/kg i.p) Group 5: tetrabenazine (3 mg/kg i.p) Group 6: tetrabenazine (10 mg/kg i.p) Group 7: […]

VMAT1 = target: T1, VMAT1 (Homo sapiens, UniProt P54219); experiment: VMAT1 affinity; format: binding
T1 sequence (P54219 1-525): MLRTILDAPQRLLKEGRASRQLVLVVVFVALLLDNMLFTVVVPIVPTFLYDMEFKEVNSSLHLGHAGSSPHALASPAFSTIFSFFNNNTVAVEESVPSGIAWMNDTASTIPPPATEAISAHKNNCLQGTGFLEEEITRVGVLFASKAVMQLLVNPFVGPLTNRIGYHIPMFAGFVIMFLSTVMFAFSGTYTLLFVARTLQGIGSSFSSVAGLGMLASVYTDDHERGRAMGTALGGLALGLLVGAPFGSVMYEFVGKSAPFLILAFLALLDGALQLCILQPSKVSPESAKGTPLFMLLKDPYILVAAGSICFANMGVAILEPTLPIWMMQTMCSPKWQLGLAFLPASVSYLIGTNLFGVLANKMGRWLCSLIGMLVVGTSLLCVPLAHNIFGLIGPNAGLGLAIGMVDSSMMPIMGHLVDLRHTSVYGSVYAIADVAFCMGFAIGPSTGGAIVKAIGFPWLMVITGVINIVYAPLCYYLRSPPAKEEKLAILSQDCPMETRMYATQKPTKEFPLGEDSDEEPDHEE

[1] = 0.3 mg/kg i.p., 45 minutes after administration
[2] = 0.3 mg/kg i.p., 3 hours after administration
[3] = 1 mg/kg i.p., 45 minutes after administration
[4] = 1 mg/kg i.p., 3 hours after administration
[5] = 3 mg/kg i.p., 45 minutes after administration
[6] = 3 mg/kg i.p., 3 hours after administration
[7] = 10 mg/kg i.p., 45 minutes after administration
[8] = 10 mg/kg i.p., 3 hours after administration

COc1cc2c(cc1OC)C1CC(=O)C(CC(C)C)CN1CC2 (racemic) [tetrabenazine, 1,3,4,6,7,11b-hexahydro-9,10-dimethoxy-3-(2-methylpropyl)-2H-benzo(a)quinolizin-2-one]
sedative effect (Male Sprague-Dawley rats; locomotor studies carried out on rats): dose related sedative effect | Inactivity Duration (Male Sprague-Dawley rats; [1]): 390.4 ± 37.4 s | Large movements Duration (Male Sprague-Dawley rats; [1]): 66.8 ± 10.7 s | Large movements Occurrence (Male Sprague-Dawley rats; [1]): 253 ± 32 | Inactivity Duration (Male Sprague-Dawley rats; [2]): 545.9 ± 37.1 s | Large movements Duration (Male Sprague-Dawley rats; [2]): 24.3 ± 4.2 s | Large movements Occurrence (Male Sprague-Dawley rats; [2]): 96 ± 14 | Inactivity Duration (Male Sprague-Dawley rats; [3]): 456.5 ± 50.5 s | Large movements Duration (Male Sprague-Dawley rats; [3]): 46.5 ± 8.6 s | Large movements Occurrence (Male Sprague-Dawley rats; [3]): 189 ± 32 | Inactivity Duration (Male Sprague-Dawley rats; [4]): 556.9 ± 31.1 s | Large movements Duration (Male Sprague-Dawley rats; [4]): 21.5 ± 4.0 s | Large movements Occurrence (Male Sprague-Dawley rats; [4]): 90 ± 16 | Inactivity Duration (Male Sprague-Dawley rats; [5]): 697.8 ± 39.7 s | Large movements Duration (Male Sprague-Dawley rats; [5]): 8.7 ± 5.9 s | Large movements Occurrence (Male Sprague-Dawley rats; [5]): 38 ± 25 | Inactivity Duration (Male Sprague-Dawley rats; [6]): 729.9 ± 26.8 s | Large movements Duration (Male Sprague-Dawley rats; [6]): 1.7 ± 0.9 s | Large movements Occurrence (Male Sprague-Dawley rats; [6]): 9 ± 4 | Inactivity Duration (Male Sprague-Dawley rats; [7]): 723.1 ± 46.5 s | Large movements Duration (Male Sprague-Dawley rats; [7]): 0.2 ± 0.2 s | Large movements Occurrence (Male Sprague-Dawley rats; [7]): 1 ± 1 | Inactivity Duration (Male Sprague-Dawley rats; [8]): 762.1 ± 40.7 s | Large movements Duration (Male Sprague-Dawley rats; [8]): 0.6 ± 0.3 s | Large movements Occurrence (Male Sprague-Dawley rats; [8]): 3 ± 1 | sedative effect (Male Sprague-Dawley rats; rats, 0.3, 1, 3 and 10 mg/kg i.p., 45 minutes and 3 hours after administration): dose-dependent sedative effect | affinity for VMAT1 (VMAT1): only a low affinity
